These results are taken from article PMC10065799, “High-throughput profiling of sequence recognition by tyrosine kinases and SH2 domains using bacterial peptide display” (eLife, 2023).

Assay in all cases: pTyr-Var library bacterial peptide display kinase screen (enrichment scores)
Assay [1] deals with Fer kinase domain. The format is biochemical, mouse. The conditions noted are these: sheet "Fer".
Assay [2] relates to EPHB1 kinase domain. The format is biochemical, human. Conditions: for Screen: sheet EPHB1, effect of the variant peptide relative to its reference peptide in the pTyr-Var library screen (enrichment scores); for Screen (variant relative to reference peptide, measured in the pTyr-Var library screen): sheet "EPHB1", variant seq vs reference seq, bacterial peptide display enrichment.

In assay [3] the target is T1, c-Abl kinase domain (Mus musculus, UniProt P00520).
T1 sequence (P00520 242-493 limits assumed): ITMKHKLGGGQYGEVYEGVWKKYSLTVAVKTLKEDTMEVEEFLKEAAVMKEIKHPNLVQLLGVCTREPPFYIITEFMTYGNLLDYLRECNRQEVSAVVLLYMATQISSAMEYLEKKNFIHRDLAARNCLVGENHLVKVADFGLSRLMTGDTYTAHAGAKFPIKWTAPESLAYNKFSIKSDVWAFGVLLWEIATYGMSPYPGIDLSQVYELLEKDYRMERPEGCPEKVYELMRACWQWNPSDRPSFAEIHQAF
The format is biochemical.

Assay [4] relates to EPHB2 kinase domain. Format: biochemical, human. The conditions noted are these: sheet EPHB2.
The target of assay [5] is c-Src kinase domain (Homo sapiens, UniProt P12931). The format is biochemical. The conditions noted are these: sheet "Src".
[6] abbreviates: value of the variant peptide against its reference peptide in the pTyr-Var library screen with Fer.
The mark [7] stands for this setting: fig5-data2, sheet "Abl", Screen for the variant/reference peptide pair, pTyr-Var library.
Where [8] appears, read: effect of variant peptide relative to its reference peptide in the pTyr-Var library screen (enrichment scores).
[9] abbreviates: effect of the variant peptide relative to its reference peptide in the pTyr-Var library screen.
Where [10] appears, read: variant peptide versus its reference peptide in the pTyr-Var library screen.
[11] abbreviates: sheet "Abl", effect of variant peptide relative to its reference peptide in pTyr-Var library screen (enrichment).
[12] abbreviates: effect of the variant relative to its reference peptide in the pTyr-Var library screen.
[13] abbreviates: variant peptide relative to its reference peptide, pTyr-Var library screen enrichment.

For HQKKPYCHTHN [NRAP_Y53_A56T], the Screen in assay [1] (setting [6]) was found to be 0.08502; in assay [2], 0.5433.

For the sequence LICRRYLVMQR [IL3RA_Y328_V323L], the Screen in assay [3] (setting [7]) stood at 0.743; in assay [4] (setting [8]) it was 1.326.

Consider WAFNLYDINKF [KCNIP3_Y174_D179Y_YF], for which the Screen in assay [5] (setting [9]) is recorded as -0.1467; in assay [1] (setting [6]), 1.417; in assay [2], 0.7978; in assay [4] (setting [8]) it was 0.891.

Turning to EAEALYQTTFQ [KRT73_Y325_K328T], the results for the Screen in assay [5] (setting [9]), in assay [1] (setting [6]) and in assay [4] (setting [8]) were 1.585, 3.654 and 1.238, respectively.

For HLEKKYVHRDS [CSF1R_Y708_R710H], the Screen was -3.671 in assay [5] (setting [9]), -0.7741 in assay [1] (setting [6]), -1.586 in assay [2] and -2.097 in assay [4] (setting [8]).

Take DCVRMYELVHR [GLE1_Y135_G130D]: the Screen in assay [1] (setting [6]) is given as 0.7012; in assay [2], -0.05786; in assay [4] (setting [8]), -0.0869.

For the sequence EEVPLYESATT [DCC_Y809_G805E], the results for the Screen in assay [1] (setting [6]), in assay [2] and in assay [4] (setting [8]) were -0.3858, -0.9244 and -0.8416, respectively.

For RRIHSYRSHLW [VHL_Y112_G114S], the Screen in assay [5] (setting [10]) is given as -3.054; in assay [3] (setting [11]) it was -2.663; in assay [4] (setting [12]), -0.1154. The “Screen (variant relative to reference peptide, measured in the pTyr-Var library screen)” value in assay [2] was -1.453.

As to LRSKQYLRNPP [SHC1_Y315_F312S], the values for the Screen in assay [3] (setting [11]) and in assay [4] (setting [8]) were -0.3171 and -1.743, respectively.

For the sequence AVISVYDLVAF [PSEN1_Y256_V261F], the Screen came out at 0.3764 in assay [5] (setting [10]), 0.2851 in assay [1] (setting [6]), 0.6578 in assay [2] and 0.9519 in assay [4] (setting [8]).

For the sequence MKVPLYETPAG [PGM5_Y358_V357L], the Screen in assay [5] (setting [10]) is on record as -1.534; in assay [1] (setting [6]), 0.5188; in assay [2], 0.8032; in assay [4] (setting [8]), 0.6636.

For the sequence QRALLYEDTLF [UNC13D_Y56_A59T_YF], the Screen in assay [5] (setting [10]) is recorded as 0.3849; in assay [1] (setting [13]), 0.1557; in assay [4] (setting [12]), 0.5663. Also, the “Screen (variant relative to reference peptide, measured in the pTyr-Var library screen)” value in assay [2] is 0.5027.

On to QADVVYVNTQL [MERTK_Y872_I871V], for which the Screen in assay [1] (setting [6]) is -1.343; in assay [2], -1.929.

For SNNFIYTTLGV [FAM83B_Y639_K640T_YF], the Screen is reported as 3.577 in assay [5] (setting [9]), 2.656 in assay [1] (setting [6]) and 2.305 in assay [2].

In assay [2], HLVLNYGVCIC [JAK2_Y613_V617I] displayed a Screen of -0.07338.

As for QNWELYSEGLG [CNKSR1_Y665_R662W], the figures for the Screen in assay [5] (setting [9]), in assay [2] and in assay [4] (setting [8]) were 2.202, 3.643 and 3.538, respectively.

In the case of IGEGTYGVLFK [CDK2_Y15_V18L_YF], the Screen in assay [5] (setting [9]) is given as 0.1027; in assay [4] (setting [8]) it was -0.7589.

As for GEHSIYSTVNN [CD55_Y266_C267S], the Screen in assay [5] (setting [9]) turned out to be 0.6713; in assay [1] (setting [6]), 1.521; in assay [2], 0.557; in assay [4] (setting [8]), 1.232.

For TWEKPYECVQC [ZNF24_Y335_G331W], the Screen is on record as -4.858 in assay [3] (setting [11]) and 1.366 in assay [1] (setting [13]).

For the sequence LQIPMYEVQWK [KIT_Y553_K550I], the Screen in assay [5] (setting [9]) is on record as 1.435; in assay [1] (setting [6]), 1.505; in assay [2], 3.846; in assay [4] (setting [8]) it was 4.801.

In turn, TNEFEYDELIV [TGM1_Y136_D132N_YF] gave a Screen in assay [4] (setting [12]) of -2.123.

As to RSACTYLAPHL [PLK3_Y615_S618P], the Screen turned out to be 2.785 in assay [5] (setting [10]) and 2.327 in assay [2].

Take ANARMYGVLPW [PLP1_Y207_D203N]: the results for the Screen in assay [5] (setting [10]) and in assay [4] (setting [8]) were -0.7799 and -1.895, respectively.

As for HDRGNYVQLNM [RECQL4_Y353_R355Q], the Screen in assay [2] was 1.895; in assay [4] (setting [8]), 1.444.

The sequence RLGVTYEQALA [MAP2_Y996_G991R] gave a Screen in assay [4] (setting [8]) of 1.544.

EDEGLYTVRVP [MYOM3_Y343_M344T]: the Screen in assay [5] (setting [10]) is on record as -0.00676; in assay [1] (setting [6]), -0.4796; in assay [2], -1.202; in assay [4] (setting [8]), -1.314.

Regarding KGEDFYCVTCP [FHL1_Y149_H154P], the Screen in assay [5] (setting [9]) was 2.585; in assay [3] (setting [7]), -1.428; in assay [1] (setting [6]) it was 2.355.

LLRFLYFFVCS [SLC34A2_Y109_G106R]: the Screen in assay [5] (setting [10]) is on record as -1.793; in assay [4] (setting [8]) it was -1.518.

Turning to QADIIYVNTQL [MERTK_Y872_V870I], the Screen was -0.9597 in assay [1] (setting [6]) and -0.9888 in assay [2].

As for AEFGLYGAMVW [VSX2_Y222_R227W_YF], the Screen in assay [5] (setting [10]) is on record as -0.4242; in assay [3] (setting [11]), 3.628; in assay [1] (setting [13]), 1.328.

HFGNNYTDVLQ [MACC1_Y803_R804T_YF] came in with a Screen in assay [2] of 1.456.

For FFSSEYHCVGG [CTSC_Y345_Y347C_YF], the Screen in assay [5] (setting [9]) is given as -0.4888; in assay [3] (setting [7]) it was 0.5786; in assay [2], -0.4883; in assay [4] (setting [8]), -0.8292.

With VPLATYMQIFK [RPL21_Y30_R32Q_YF], the results for the Screen in assay [5] (setting [10]) and in assay [2] were 1.658 and 2.259, respectively.

Turning to RGESFYQDTMN [RARS_Y338_R341T], the Screen stood at 1.596 in assay [1] (setting [13]), 2.46 in assay [2] and 1.971 in assay [4] (setting [8]).

As to QNAGDYFDLFG [PTPN11_Y62_T59A_YF], the results for the Screen in assay [5] (setting [10]), in assay [2] and in assay [4] (setting [8]) were -0.3977, -0.1063 and -0.3726, respectively.

Take KSIQLYDTPFE [SHB_Y297_G293S_YF]: the Screen in assay [3] (setting [11]) was -1.035; in assay [1] (setting [13]), 0.2984; in assay [4] (setting [8]), 0.4609. Besides, the “Screen (variant relative to reference peptide, measured in the pTyr-Var library screen)” value in assay [2] is given as 0.5631.

For the sequence DLNATYCTIQG [U2SURP_Y634_R635C], the Screen in assay [5] (setting [10]) came to 2.996; in assay [4] (setting [12]), 3.025. In addition, the “Screen (variant relative to reference peptide, measured in the pTyr-Var library screen)” value in assay [2] turned out to be 3.639.

On to HICTAYKLVLA [DHCR24_Y190_E191K], for which the values for the Screen in assay [5] (setting [9]), in assay [1] (setting [6]) and in assay [4] (setting [8]) were -1.13, -2.51 and 0.4857, respectively.

As for LRSELYSLIAR [PHIP_Y16_F17S], the Screen in assay [5] (setting [10]) was determined as 0.6047; in assay [1] (setting [6]), 2.641; in assay [2], 1.727.

In assay [3] (setting [7]), GSERRYTREGG [PTPRN2_Y139_S140T] showed a Screen of -0.6086.

As to HNLDFYKQTTN [FGFR3_Y648_K650Q_YF], the Screen was -2.522 in assay [5] (setting [9]), -2.104 in assay [1] (setting [6]), -1.421 in assay [2] and -1.53 in assay [4] (setting [8]).

QELRRYLESGV [MICA_Y194_K196E] came in with a Screen in assay [4] (setting [8]) of 0.3004.

Sequence NTEGGYCCICA [CRELD1_Y328_R329C] came in with a Screen in assay [3] (setting [7]) of -0.2438.

For LLILEYAKFGS [RET_Y806_V804L_YF], the values for the Screen in assay [2] and in assay [4] (setting [8]) were -0.7851 and -0.9388, respectively.

In turn, TEIGQYGNGLK [MORC2_Y100_Q96E] displayed a Screen in assay [3] (setting [7]) of -0.8794.

Turning to AVLSLYASGRN [ACTA1_Y145_T150N], the Screen in assay [3] (setting [7]) is recorded as -2.061.

On to INPIIYAFVGG [CCR5_Y297_E302G], for which the Screen in assay [5] (setting [9]) was 0.06385; in assay [1] (setting [6]), -0.02742; in assay [2] it was 0.07603; in assay [4] (setting [8]), 0.0201.

Turning to LSIQCYLRASD [HMGCS2_Y262_L266S], the results for the Screen in assay [1] (setting [6]), in assay [2] and in assay [4] (setting [8]) were 1.097, 1.205 and 0.8903, respectively.

Take LFLASYCIGGG [UBD_Y161_C160S]: the Screen in assay [3] (setting [11]) was found to be 1.114.
